Measurements reported in patent US10358436B2, “Kinase inhibitors and method of treating cancer” (University Health Network, priority 2010, dated 2019).
Counter-ions that a name gives are not always drawn.

Each compound was assayed against Aurora A (Homo sapiens (Human), UniProt O14965) (assay: Aurora A inhibition assay (Z-Lyte)).
Aurora A, sequence (O14965 whole entry): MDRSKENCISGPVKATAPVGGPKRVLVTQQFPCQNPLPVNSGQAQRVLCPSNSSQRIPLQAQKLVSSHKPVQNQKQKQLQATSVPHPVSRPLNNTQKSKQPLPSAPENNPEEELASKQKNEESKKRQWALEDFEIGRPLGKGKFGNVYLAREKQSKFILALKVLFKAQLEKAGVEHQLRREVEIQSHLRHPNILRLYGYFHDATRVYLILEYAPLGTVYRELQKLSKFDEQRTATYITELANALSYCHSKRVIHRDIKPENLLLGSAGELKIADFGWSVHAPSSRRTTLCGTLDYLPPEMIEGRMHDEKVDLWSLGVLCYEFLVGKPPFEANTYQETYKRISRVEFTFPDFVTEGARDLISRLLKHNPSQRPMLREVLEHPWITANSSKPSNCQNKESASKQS
Type: biochemical
Work on COc1ccc2c(c1)[C@]1(C[C@H]1c1ccc3c(/C=C/c4ccc5c(c4)CN(C)CC5)n[nH]c3c1)C(=O)N2 [Example A64, (1R,2S)-5′-methoxy-2-(3-((E)-2-(2-methyl-1,2,3,4-tetrahydroisoquinolin-7-yl)vinyl)-1H-indazol-6-yl)spiro[cyclopropane-1,3′-indolin]-2′-one 2,2,2-trifluoroacetate salt] yielded an inhibition at 1 µM greater than 50%.
CN1CCc2ccc(/C=C/c3n[nH]c4cc([C@@H]5C[C@@]56C(=O)Nc5ccccc56)ccc34)cc2C1 [Example A65, (1R,2S)-2-(3-((E)-2-(2-methyl-1,2,3,4-tetrahydroisoquinolin-7-yl)vinyl)-1H-indazol-6-yl)spiro[cyclopropane-1,3′-indolin]-2′-one 2,2,2-trifluoroacetate salt] showed an inhibition at 1 µM greater than 50%.
COc1ccc2c(c1)[C@]1(C[C@H]1c1ccc3c(/C=C/c4ccc5c(c4)CNCC5)n[nH]c3c1)C(=O)N2 [Example A66, (1R,2S)-5′-methoxy-2-(3-((E)-2-(1,2,3,4-tetrahydroisoquinolin-7-yl)vinyl)-1H-indazol-6-yl)spiro[cyclopropane-1,3′-indolin]-2′-one 2,2,2-trifluoroacetate salt] showed an inhibition at 1 µM greater than 50%.
COc1ccc2c(c1)[C@]1(C[C@H]1c1ccc3c(-c4ccc(OCCN5CCCCC5)cc4)n[nH]c3c1)C(=O)N2 [Example A67, (1R,2S)-5′-methoxy-2-(3-(4-(2-(piperidin-1-yl)ethoxy)phenyl)-1H-indazol-6-yl)spiro[cyclopropane-1,3′-indolin]-2′-one 2,2,2-trifluoroacetate salt] was tested, and the inhibition at 1 µM was less than 50%.
Work on COc1ccc2c(c1)[C@]1(C[C@H]1c1ccc3c(-c4ccc(OCCN5CCOCC5)cc4)n[nH]c3c1)C(=O)N2 [Example A68, (1R,2S)-5′-methoxy-2-(3-(4-(2-morpholinoethoxy)phenyl)-1H-indazol-6-yl)spiro[cyclopropane-1,3′-indolin]-2′-one 2,2,2-trifluoroacetate salt] yielded an inhibition at 1 µM of less than 50%.
In the case of COc1ccc2c(c1)[C@]1(C[C@H]1c1ccc3c(-c4ccc(OCCN(C)C)cc4)n[nH]c3c1)C(=O)N2 [Example A69, (1R,2S)-2-(3-(4-(2-(dimethylamino)ethoxy)phenyl)-1H-indazol-6-yl)-5′-methoxyspiro[cyclopropane-1,3′-indolin]-2′-one 2,2,2-trifluoroacetate salt], the inhibition at 1 µM is reported as less than 50%.
For COc1ccc2c(c1)[C@]1(C[C@H]1c1ccc3c(-c4ccc5c(c4)CN(C)CC5)n[nH]c3c1)C(=O)N2 [Example A70, (1R,2S)-5′-methoxy-2-(3-(2-methyl-1,2,3,4-tetrahydroisoquinolin-7-yl)-1H-indazol-6-yl)spiro[cyclopropane-1,3′-indolin]-2′-one 2,2,2-trifluoroacetate salt], the inhibition at 1 µM was less than 50%.
COc1ccc2c(c1)[C@]1(C[C@H]1c1ccc3c(-c4ccc5c(c4)CNCC5)n[nH]c3c1)C(=O)N2 [Example A71, (1R,2S)-5′-methoxy-2-(3-(1,2,3,4-tetrahydroisoquinolin-7-yl)-1H-indazol-6-yl)spiro[cyclopropane-1,3′-indolin]-2′-one 2,2,2-trifluoroacetate salt] showed an inhibition at 1 µM of less than 50%.
With COc1ccc2c(c1)[C@]1(C[C@H]1c1ccc3c(/C=C/c4ccc(CN5CCCOCC5)cc4)n[nH]c3c1)C(=O)N2 [Example A73, (1R,2S)-(E)-2-(3-(4-((1,4-oxazepan-4-yl)methyl)styryl)-1H-indazol-6-yl)-5′-methoxyspiro[cyclopropane-1,3′-indolin]-2′-one 2,2,2-trifluoroacetate salt] the inhibition at 1 µM was greater than 50%.
CN1CCc2cc(/C=C/c3n[nH]c4cc([C@@H]5C[C@@]56C(=O)Nc5ccccc56)ccc34)ccc2C1 [Example A74, (1R,2S)-2-(3-((E)-2-(2-methyl-1,2,3,4-tetrahydroisoquinolin-6-yl)vinyl)-1H-indazol-6-yl)spiro[cyclopropane-1,3′-indolin]-2′-one 2,2,2-trifluoroacetate salt] was tested, and the inhibition at 1 µM was greater than 50%.
